In PMC12169847, “Targeted protein degradation by KLHDC2 ligands identified by high-throughput screening” (eLife, 2025):
Values joined by “and” are separate entries in the source; they are usually repeats but may differ in a detail not shown here. Identical values can stand only once. Like-named read-outs stand apart in the source and are kept apart here.

What was measured:
KEAP1 Kelch domain = biological target: T1, KEAP1 Kelch domain (Homo sapiens, UniProt Q14145); assay: Fluorescence polarization counter-screen, KEAP1 with TAMRA-NRF2 peptide; assay type: binding; conditions: for Fluorescence polarization signal: KEAP1, replicate wells; for inhibitory effect in the KEAP1 counter-screening assay: concentrations less than 20 µM; for EC50: in figure
T1 construct: HIS6 (N); made in house; host or cells: Escherichia coli BL21(DE3)
T1 sequence (Q14145 321-609 limits assumed): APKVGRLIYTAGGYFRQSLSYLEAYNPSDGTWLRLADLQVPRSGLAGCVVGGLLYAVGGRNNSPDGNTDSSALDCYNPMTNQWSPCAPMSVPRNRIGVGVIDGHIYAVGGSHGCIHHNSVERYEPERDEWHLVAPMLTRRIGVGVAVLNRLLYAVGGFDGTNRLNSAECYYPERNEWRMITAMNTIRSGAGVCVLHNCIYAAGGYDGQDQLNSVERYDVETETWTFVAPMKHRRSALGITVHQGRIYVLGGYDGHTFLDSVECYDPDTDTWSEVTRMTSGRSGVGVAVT

KLHDC2 = biological target: T2, KLHDC2 (Homo sapiens, UniProt Q9Y2U9); assay: Surface plasmon resonance direct binding to immobilized KLHDC2; conditions: read-out: KLHDC2 Kd (SPR)
T2 sequence (Q9Y2U9 1-362): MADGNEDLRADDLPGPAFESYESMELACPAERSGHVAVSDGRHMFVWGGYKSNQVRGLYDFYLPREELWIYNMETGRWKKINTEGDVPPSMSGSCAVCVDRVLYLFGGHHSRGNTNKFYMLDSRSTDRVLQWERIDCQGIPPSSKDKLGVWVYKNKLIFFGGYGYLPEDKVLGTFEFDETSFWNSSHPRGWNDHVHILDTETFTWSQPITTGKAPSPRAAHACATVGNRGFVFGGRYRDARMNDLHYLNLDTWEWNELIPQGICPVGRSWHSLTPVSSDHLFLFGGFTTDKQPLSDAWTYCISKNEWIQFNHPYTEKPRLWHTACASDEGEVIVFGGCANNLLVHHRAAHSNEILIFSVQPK

GST-tagged KLHDC2 = biological target: T3, GST-tagged KLHDC2 (Homo sapiens, UniProt Q9Y2U9); assay: Fluorescence polarization competition assay, KLHDC2 with TAMRA-SelK peptide (384-well); conditions: for Fluorescence polarization signal: KLHDC2, replicate wells
T3 sequence (Q9Y2U9 1-362): T2 sequence (Q9Y2U9 1-362)

BRD4 [1] = biological target: T4, BRD4 (Homo sapiens, UniProt O60885); assay: Cell-based endogenous BRD4 degradation assay (western blot) in SK-BR-3; set-up: expressed in transfected cells
Method: SK-BR-3 cells (0.25×10^6 cells/well, 2 mL) were seeded in six-well polystyrene plates for 24 hr before the compounds were added at the indicated doses as DMSO solutions. The protease inhibitor MG132 (Selleck Chemicals) was added to the sixth well along with 10 μM 3d at a concentration of 10 μM. The plate was incubated at 37°C for 24 hr, and the cells from each well were collected and lysed in RIPA buffer (Thermo Fisher 89900) with Halt protease and phosphatase inhibitor cocktail (Thermo Fisher 78440). The cellular content was extracted on ice for 20 min, and the protein concentration was determined by BCA assay (Thermo Fisher 23327). 2 μg of each sample was resolved via SDS-PAGE gels, and western blotting was used to visualize the endogenous BRD4 level (BRD4 primary antibody Abcam plc, Ab128874, RRID:AB_11145462, 1:10,000 dilution) with Bio-Rad Gel Doc XR+ imaging system.

BRD4 [2] = biological target: T4, BRD4; assay: Cell-based HiBiT BRD4 degradation assay in HEK293T; set-up: expressed in transfected cells; host or cells: HEK293T; conditions: for Relative BRD4 levels (HiBiT luminescence): replicate wells; for DC50: BRD4-HiBiT, HEK293T;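 as to all read-outs here: HEK293T cells transiently expressing HiBiT-tagged BRD4, exposed to serially diluted compounds, then lysed for a luminescence read-out that tracks the amount of cellular BRD4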

COc1ccc(C2CC(c3cccc(F)c3)Nc3c(C(=O)O)cc(Br)cc32)cc1OC (stereo not shown) [compound 1]
Fluorescence polarization signal (KEAP1 Kelch domain; 0.169351 nM): 15.2 and 20.2 and 9.533
Fluorescence polarization signal (KEAP1 Kelch domain; 0.508053 nM): 11.1 and 15.1 and 18.7
Fluorescence polarization signal (KEAP1 Kelch domain; 1.52416 nM): 20.7 and 19.8 (2×)
Fluorescence polarization signal (KEAP1 Kelch domain; 4.57247 nM): 27.1 and 18.2 and 28.2
Fluorescence polarization signal (KEAP1 Kelch domain; 13.7174 nM): 24.4 and 19.1 and 17
Fluorescence polarization signal (KEAP1 Kelch domain; 41.1523 nM): 12.2 and 19.5 and 19.8
Fluorescence polarization signal (KEAP1 Kelch domain; 123.457 nM): 21.2 and 18.9 and 16.3
Fluorescence polarization signal (KEAP1 Kelch domain; 370.37 nM): 24.1 and 16.2 and 17.6
Fluorescence polarization signal (KEAP1 Kelch domain; 1111.11 nM): 21.2 and 15.6 and 17.3
Fluorescence polarization signal (KEAP1 Kelch domain; 3333.33 nM): 8.697 and 21.8 and 19.7
Fluorescence polarization signal (KEAP1 Kelch domain; 10000 nM): 14.9 and 22.1 and 19.3
inhibitory effect in the KEAP1 counter-screening assay (KEAP1 Kelch domain): did not have an inhibitory effect
EC50 (KEAP1 Kelch domain): > 20000 nM
Kd (KLHDC2): 810 nM and 809 nM
EC50 (GST-tagged KLHDC2): 2500 nM
IC50 (GST-tagged KLHDC2): 2500 nM
Fluorescence polarization signal (GST-tagged KLHDC2; 0.169351 nM): 0.6958 and 5.527 and -6.154
Fluorescence polarization signal (GST-tagged KLHDC2; 0.508053 nM): 0.1958 and 5.927 and -4.854
Fluorescence polarization signal (GST-tagged KLHDC2; 1.52416 nM): -13.1042 and -0.4734 and -3.754
Fluorescence polarization signal (GST-tagged KLHDC2; 4.57247 nM): 1.996 and -1.273 and -4.954
Fluorescence polarization signal (GST-tagged KLHDC2; 13.7174 nM): 2.396 and 3.527 and -0.6542
Fluorescence polarization signal (GST-tagged KLHDC2; 41.1523 nM): 2.696 and 0.3828 and -2.854
Fluorescence polarization signal (GST-tagged KLHDC2; 123.457 nM): -3.504 and -5.782 and -9.454
Fluorescence polarization signal (GST-tagged KLHDC2; 370.37 nM): -4.604 and 3.827 and -2.854
Fluorescence polarization signal (GST-tagged KLHDC2; 1111.11 nM): -13.7042 and -3.373 and -3.854
Fluorescence polarization signal (GST-tagged KLHDC2; 3333.33 nM): -18.1042 and -20.4734 and -17.5543
Fluorescence polarization signal (GST-tagged KLHDC2; 10000 nM): -16.9042 and -31.6734 and -31.9543

COC(=O)c1cc(Cl)cc2c1NC(c1cccc(OCCC3CCN(CC4CCN(C(=O)CC5N=C(c6ccc(Cl)cc6)c6c(sc(C)c6C)-n6c(C)nnc65)CC4)CC3)c1)C1C3CCC(C3)C21 [compound 8, Methyl 2-chloro-6-(3-(2-(1-((1-(2-((S)–4-(4-chlorophenyl)-2,3,9-trimethyl-6H-thieno[3,2 f][1,2,4]triazolo[4,3 a][1,4]diazepin-6-yl)acetyl)piperidin-4-yl)methyl)piperidin-4-yl)ethoxy)phenyl)-5,6,6a,7,8,9,10,10a-octahydro-7,10-methanophenanthridine-4-carboxylate]
endogenous BRD4 protein degraded (BRD4 [1]; SK-BR-3, 100 nM, 24 hr): more than 60%
endogenous BRD4 degradation (maximal) (BRD4 [1]; SK-BR-3, 10 µM, 24 hr): 94%
BRD4 remaining (BRD4 [1]; SK-BR-3, 10 µM, DMSO condition, 24 hr): 4%
BRD4 remaining (BRD4 [1]; SK-BR-3, 10 µM, co-treated with MG-132, 24 hr): 29%
Relative BRD4 levels (HiBiT luminescence) (BRD4 [2]; 4 hr, 0.338702 nM): 0.9416 and 0.7691 and 0.8677
Relative BRD4 levels (HiBiT luminescence) (BRD4 [2]; 4 hr, 1.01611 nM): 1.421 and 0.6823 and 1.057
Relative BRD4 levels (HiBiT luminescence) (BRD4 [2]; 4 hr, 3.04832 nM): 0.9694 and 0.7305 and 0.8098
Relative BRD4 levels (HiBiT luminescence) (BRD4 [2]; 4 hr, 9.14495 nM): 0.8569 and 0.4906 and 0.8452
Relative BRD4 levels (HiBiT luminescence) (BRD4 [2]; 4 hr, 27.4348 nM): 0.6224 and 0.978 and 0.6213
Relative BRD4 levels (HiBiT luminescence) (BRD4 [2]; 4 hr, 82.3045 nM): 0.6909 and 0.6031 and 0.4253
Relative BRD4 levels (HiBiT luminescence) (BRD4 [2]; 4 hr, 246.914 nM): 0.2967 and 0.3567 and 0.4735
Relative BRD4 levels (HiBiT luminescence) (BRD4 [2]; 4 hr, 740.741 nM): 0.2624 and 0.2035 and 0.2314
Relative BRD4 levels (HiBiT luminescence) (BRD4 [2]; 4 hr, 2222.22 nM): 0.1885 and 0.1435 and 0.2046
Relative BRD4 levels (HiBiT luminescence) (BRD4 [2]; 4 hr, 6666.67 nM): 0.1767 and 0.1639 and 0.1864
Relative BRD4 levels (HiBiT luminescence) (BRD4 [2]; 4 hr, 20000 nM): 0.2282 and 0.2025 and 0.226
Relative BRD4 levels (HiBiT luminescence) (BRD4 [2]; 24 hr, 0.338702 nM): 0.9416 and 0.7691 and 0.8677
Relative BRD4 levels (HiBiT luminescence) (BRD4 [2]; 24 hr, 1.01611 nM): 1.421 and 0.6823 and 1.057
Relative BRD4 levels (HiBiT luminescence) (BRD4 [2]; 24 hr, 3.04832 nM): 0.9694 and 0.7305 and 0.8098
Relative BRD4 levels (HiBiT luminescence) (BRD4 [2]; 24 hr, 9.14495 nM): 0.8569 and 0.4906 and 0.8452
Relative BRD4 levels (HiBiT luminescence) (BRD4 [2]; 24 hr, 27.4348 nM): 0.6224 and 0.978 and 0.6213
Relative BRD4 levels (HiBiT luminescence) (BRD4 [2]; 24 hr, 82.3045 nM): 0.6909 and 0.6031 and 0.4253
Relative BRD4 levels (HiBiT luminescence) (BRD4 [2]; 24 hr, 246.914 nM): 0.2967 and 0.3567 and 0.4735
Relative BRD4 levels (HiBiT luminescence) (BRD4 [2]; 24 hr, 740.741 nM): 0.2624 and 0.2035 and 0.2314
Relative BRD4 levels (HiBiT luminescence) (BRD4 [2]; 24 hr, 2222.22 nM): 0.1885 and 0.1435 and 0.2046
Relative BRD4 levels (HiBiT luminescence) (BRD4 [2]; 24 hr, 6666.67 nM): 0.1767 and 0.1639 and 0.1864
Relative BRD4 levels (HiBiT luminescence) (BRD4 [2]; 24 hr, 20000 nM): 0.2282 and 0.2025 and 0.226
DC50 (BRD4 [2]; 4 hr, read-out: DC50 (4 hr)): 164 nM
DC50 (BRD4 [2]; 24 hr, read-out: DC50 (24 hr)): 80 nM

O=C(O)c1cc(Cl)cc2c1NC(c1cccc(C(F)(F)F)c1)C1C3CCC(C3)C21 (stereo not shown) [compound 5]
Fluorescence polarization signal (KEAP1 Kelch domain; 0.169351 nM): 20 and 24 and 25
Fluorescence polarization signal (KEAP1 Kelch domain; 0.508053 nM): 22 and 20 and 32
Fluorescence polarization signal (KEAP1 Kelch domain; 1.52416 nM): 29 and 21 and 41
Fluorescence polarization signal (KEAP1 Kelch domain; 4.57247 nM): 16 and 24 and 43
Fluorescence polarization signal (KEAP1 Kelch domain; 13.7174 nM): 24 (2×) and 27
Fluorescence polarization signal (KEAP1 Kelch domain; 41.1523 nM): 20 and 18 and 26
Fluorescence polarization signal (KEAP1 Kelch domain; 123.457 nM): 20 and 35 and 31
Fluorescence polarization signal (KEAP1 Kelch domain; 370.37 nM): 31 and 22 and 25
Fluorescence polarization signal (KEAP1 Kelch domain; 1111.11 nM): 25 and 23 and 18
Fluorescence polarization signal (KEAP1 Kelch domain; 3333.33 nM): 15 and 26 and 34
Fluorescence polarization signal (KEAP1 Kelch domain; 10000 nM): 31 and 14 and 27
inhibitory effect in the KEAP1 counter-screening assay (KEAP1 Kelch domain): no inhibitory effect
EC50 (KEAP1 Kelch domain): > 20000 nM
Kd (KLHDC2): 380 nM and 379 nM
EC50 (GST-tagged KLHDC2): 760 nM
IC50 (GST-tagged KLHDC2): 760 nM
Fluorescence polarization signal (GST-tagged KLHDC2; 0.169351 nM): -4 and 1 and 6
Fluorescence polarization signal (GST-tagged KLHDC2; 0.508053 nM): -11.1 and -2.3 and 1
Fluorescence polarization signal (GST-tagged KLHDC2; 1.52416 nM): -1.4 and 2 and 0
Fluorescence polarization signal (GST-tagged KLHDC2; 4.57247 nM): 1 (2×) and -8.1
Fluorescence polarization signal (GST-tagged KLHDC2; 13.7174 nM): 1 and -4 and 0
Fluorescence polarization signal (GST-tagged KLHDC2; 41.1523 nM): 1 and -1.4 and -5.1
Fluorescence polarization signal (GST-tagged KLHDC2; 123.457 nM): 0 and -2.6 and -8.8
Fluorescence polarization signal (GST-tagged KLHDC2; 370.37 nM): -30.6 and -31 and -24.7
Fluorescence polarization signal (GST-tagged KLHDC2; 1111.11 nM): -67.8 and -66.2 and -52.8
Fluorescence polarization signal (GST-tagged KLHDC2; 3333.33 nM): -93.4 and -88.4 and -82.2
Fluorescence polarization signal (GST-tagged KLHDC2; 10000 nM): -84.4 and -101.233 and -107.845
